Experimental data from US20190300882A1, “METHODS OF TREATING NEUROBLASTOMA AND REAGENTS THEREFOR” (GARVAN INSTITUTE OF MEDICAL RESEARCH, priority 2016, published 2019).

How the values were obtained:
SHEP cells [1] = test: Primary functional miRNA mimic screen, CellTiter-Glo cell viability; type: cell-based; details: miRNA mimic 25 nM alone, 144 hours post-transfection
Description: Breast cancer cell lines (MDA-MB-231, MDA-MB-468, SK-BR-3; BT474) and prostate cancer cell lines (PC3, DU145) were obtained from American Type Culture Collection (ATCC). Neuroblastoma cell lines (KELLY, SHEP) were received from Children's Cancer Institute (CCIA). The KELLY cells were selected as a MYCN amplified neuroblastoma cell line and the SHEP cells were selected as a MYCN wild-type neuroblastoma cell line.
All breast and prostate cancer cell lines were cultivated in RPMI media supplemented with 10% FCS, HEPES, and insulin. The neuroblastoma cell lines, KELLY, SHEP, were grown in 10% FCS/RPMI and 10% FCS/DMEM, respectively.
(§1) Each of the cell lines were reverse transfected in 384-well plate format with 25 nM of a miRNA from the Dharmacon miRNA mimic or inhibitor libraries (version 16.0) using liquid-handling robot Calliper Sciclone ALH3000 according to the conditions described in Table 3. After 24 hours, media was changed using BioTek 406, and 144 hours post-transfection, cell viability was determined using CellTiter-Glo luminescent assay (Promega) at 1:2 dilution. Luminescence measurements were taken on the Synergy H4 high-throughput multimode microplate reader. All screens were performed in duplicates.
Raw viability was normalised to a nontargeting control (OTP) or mock wells, and death genes or controls inducing varying levels of death were used to monitor transfection efficiency and to define dynamic range in each screen (FIG. 1). To define screen hits, normalised viability scores were binned in the following manner: CV1 bin included candidates with viability >=0.8; CV2 bin included candidates with viability <0.8 and >0.5, and LC bin was assigned to candidates with normalised viability <=0.5. Only LC candidates were defined as screen hits.

[2] = test system: SK-N-DZ MYCN-amplified neuroblastoma cell line; test: Secondary validation screen of lethal miRNAs, additional cell line, cell viability; type: cell-based; details: miRNA mimic alone
Procedure: as §1
(§2) The secondary validation screens were performed in accordance with the genome-wide screens described in Example 1 and Example 2, respectively, with the exception that an additional MYCN-amplified neuroblastoma cell line (SK-N-DZ) was added to each screen.
(§3) Furthermore, five additional non-active miRNAs discovered to have no measureable effect across all treatment groups of the genome-wide screen (‘non-lethal’ miRNAs) were included as negative controls.

KELLY cells [3] = test: Secondary validation screen of lethal miRNAs, cell viability; type: cell-based; details: miRNA mimic alone
Procedure: as §1, §2, §3

SHEP cells [4] = test: as above; type: cell-based; details: miRNA mimic alone
Procedure: as §1, §2, §3

KELLY cells [5] = test: Primary functional miRNA mimic screen, CellTiter-Glo cell viability; type: cell-based; details: miRNA mimic 25 nM alone, 144 hours post-transfection
Description: Breast cancer cell lines (MDA-MB-231, MDA-MB-468, SK-BR-3; BT474) and prostate cancer cell lines (PC3, DU145) were obtained from American Type Culture Collection (ATCC). Neuroblastoma cell lines (KELLY, SHEP) were received from Children's Cancer Institute (CCIA). The KELLY cells were selected as a MYCN amplified neuroblastoma cell line and the SHEP cells were selected as a MYCN wild-type neuroblastoma cell line. All breast and prostate cancer cell lines were cultivated in RPMI media supplemented with 10% FCS, HEPES, and insulin. […] Each of the cell lines were reverse transfected in 384-well plate format with 25 nM of a miRNA from the Dharmacon miRNA mimic or inhibitor libraries (version 16.0) using liquid-handling robot Calliper Sciclone ALH3000 according to the conditions described in Table 3. […] Luminescence measurements were taken on the Synergy H4 high-throughput multimode microplate reader. All screens were performed in duplicates. Raw viability was normalised to a nontargeting control (OTP) or mock wells, and death genes or controls inducing varying levels of death were used to monitor transfection efficiency and to define dynamic range in each screen (FIG. 1). To define screen hits, normalised viability scores were binned in the following manner: CV1 bin included candidates with viability >=0.8; […] Only LC candidates were defined as screen hits.

KELLY cells [6] = test: Secondary validation screen of synthetic lethal miRNAs with low dose IC30 chemotherapy, cell viability; type: cell-based; details: for synthetic lethality with chemotherapy: in both Kelly and SKNDZ MYCN-amplified cells, secondary screen; for Secondary screen Viability (% of control) Kelly DXR: miRNA mimic + low dose IC30 doxorubicin; for Secondary screen Viability (% of control) Kelly VCR: miRNA mimic + low dose IC30 vincristine; for Secondary screen Viability (% of control) Kelly Vehicle: miRNA mimic + vehicle
Procedure: (§4) KELLY cells were grown in 10% FCS/RPMI as described in Example 1 and reverse transfected in 384-well plate format with 25 nM of a miRNA from the Dharmacon microRNA mimic Library (version 16.0) using liquid-handling robot Calliper Sciclone ALH3000 according to the conditions described in Table 3. After 24 hours, media was changed using a BioTek 406. Media was again changed after 48 hours and 96 hours using a BioTek 406, and at each of those time points low dose IC30 of vincristine or doxorubicin was added to the culture. 144 hours post-transfection, cell viability was determined using CellTiter-Glo luminescent assay (Promega) at 1:2 dilution. Luminescence measurements were taken on the Synergy H4 high-throughput multimode microplate reader as described in Example 1. All screens were performed in duplicates. The experimental design and timeline for this screen are illustrated in FIGS. 5 and 6, respectively.
as §2, §3

[7] = test system: SK-N-DZ MYCN-amplified neuroblastoma cell line; test: Secondary validation screen of synthetic lethal miRNAs with low dose IC30 chemotherapy, additional cell line; type: cell-based; details: for Additional cell line Viability (% of control) SKNDZ DXR: miRNA mimic + low dose IC30 doxorubicin; for Additional cell line Viability (% of control) SKNDZ VCR: miRNA mimic + low dose IC30 vincristine; for Additional cell line Viability (% of control) SKNDZ Vehicle: miRNA mimic + vehicle
Procedure: as §4, §2, §3

IMR-90 cells = test: Cell toxicity screen of synthetic lethal miRNAs in non-cancer cells; details: for cell viability in non-cancer cells, DXR (% of control): IMR-90, miRNA + low dose IC30 doxorubicin; for cell viability in non-cancer cells, VCR (% of control): IMR-90, miRNA + low dose IC30 vincristine; for cell viability in non-cancer cells, Media (% of control): IMR-90, miRNA alone (media)
Procedure: The cell toxicity screens were performed in IMR-90 cells (normal human fibroblast cells, ATCC).

KELLY cells [8] = test: Primary miRNA mimic screen in combination with low dose IC30 of vincristine or doxorubicin, cell viability; type: cell-based; details: for Primary screen Viability (% of control) Kelly DXR: miRNA mimic 25 nM + low dose IC30 doxorubicin; for Primary screen Viability (% of control) Kelly VCR: miRNA mimic 25 nM + low dose IC30 vincristine; for Primary screen Viability (% of control) Kelly Vehicle: miRNA mimic 25 nM + vehicle
Procedure: To systematically identify miRNAs that affect viability and survival of neuroblstoma cells in combination with chemotherapy, a further functional miRNA screen was performed using the 1200 miRNAs from the miRIDIAN miRNA mimic Library (version 16.0; Dharmacon) in combination with low dose IC30 of vincristine or doxorubicin in the two neuroblastoma cancer cell lines. In doing so, the inventors identified miRNAs which result in a lethal phenotype to neuroblastoma cells when administered in combination with low dose IC30 chemotherapy (hereinafter referred to as ‘synthetic lethal’ miRNAs). […] After 24 hours, media was changed using a BioTek 406. […] Luminescence measurements were taken on the Synergy H4 high-throughput multimode microplate reader as described in Example 1. All screens were performed in duplicates.

Row | Substance | Primary screen Viability (% of control) SHEP (SHEP cells [1]) | Additional cell line Viability (% of control) SKNDZ [2] | Secondary screen Viability (% of control) KELLY (KELLY cells [3]) | Secondary screen Viability (% of control) SHEP (SHEP cells [4]) | Primary screen Viability (% of control) KELLY (KELLY cells [5]) | synthetic lethality with chemotherapy (KELLY cells [6]) | Secondary screen Viability (% of control) Kelly DXR (KELLY cells [6]) | Secondary screen Viability (% of control) Kelly VCR (KELLY cells [6]) | Secondary screen Viability (% of control) Kelly Vehicle (KELLY cells [6]) | Additional cell line Viability (% of control) SKNDZ DXR [7] | Additional cell line Viability (% of control) SKNDZ VCR [7] | Additional cell line Viability (% of control) SKNDZ Vehicle [7] | cell viability in non-cancer cells, DXR (% of control) (IMR-90 cells) | cell viability in non-cancer cells, VCR (% of control) (IMR-90 cells) | cell viability in non-cancer cells, Media (% of control) (IMR-90 cells) | Primary screen Viability (% of control) Kelly DXR (KELLY cells [8]) | Primary screen Viability (% of control) Kelly VCR (KELLY cells [8]) | Primary screen Viability (% of control) Kelly Vehicle (KELLY cells [8])
1 | hsa-miR-103a-2-5p (AGCUUCUUUACAGUGCUGCCUUG; chemistry not given here; listed as Homo sapiens) | 46 % of control | 52 % of control | 39 % of control | 56 % of control | 26 % of control | – | – | – | – | – | – | – | – | – | – | – | – | –
2 | hsa-miR-148b-5p (AAGUUCUGUUAUACACUCAGGC; chemistry not given here; listed as Homo sapiens) | 20 % of control | 21 % of control | 8 % of control | 34 % of control | 5 % of control | – | – | – | – | – | – | – | – | – | – | – | – | –
3 | hsa-miR-192-3p (CUGCCAAUUCCAUAGGUCACAG; chemistry not given here; listed as Homo sapiens) | 43 % of control | 97 % of control | 54 % of control | 49 % of control | 42 % of control | – | – | – | – | – | – | – | – | – | – | – | – | –
4 | hsa-miR-489 (guide GUGACAUCACAUAUACGGCAGC; chemistry not given here; listed as Homo sapiens) | 40 % of control | 33 % of control | 4 % of control | 43 % of control | 5 % of control | – | – | – | – | – | – | – | – | – | – | – | – | –
5 | hsa-miR-491-3p (guide CUUAUGCAAGAUUCCCUUCUAC; chemistry not given here; listed as Homo sapiens) | 26 % of control | 47 % of control | 12 % of control | 34 % of control | 12 % of control | – | – | – | – | – | – | – | – | – | – | – | – | –
6 | hsa-miR-515-3p (guide GAGUGCCUUCUUUUGGAGCGUU; chemistry not given here; listed as Homo sapiens) | – | – | – | – | – | substantial synthetic lethality | 42 % of control | 73 % of control | 82 % of control | 24 % of control | 70 % of control | 85 % of control | 50 % of control | 51 % of control | 59 % of control | 38 % of control | 56 % of control | 84 % of control
7 | hsa-miR-517c-3p (guide AUCGUGCAUCCUUUUAGAGUGU; chemistry not given here; listed as Homo sapiens) | 40 % of control | 21 % of control | 27 % of control | 43 % of control | 26 % of control | – | – | – | – | – | – | – | – | – | – | – | – | –
8 | hsa-miR-542-3p (guide UGUGACAGAUUGAUAACUGAAA; chemistry not given here; listed as Homo sapiens) | 29 % of control | 28 % of control | 20 % of control | 38 % of control | 6 % of control | – | – | – | – | – | – | – | – | – | – | – | – | –
9 | hsa-miR-544a (guide AUUCUGCAUUUUUAGCAAGUUC; chemistry not given here; listed as Homo sapiens) | 32 % of control | 59 % of control | 17 % of control | 61 % of control | 7 % of control | – | – | – | – | – | – | – | – | – | – | – | – | –
10 | hsa-miR-550a-3p (guide UGUCUUACUCCCUCAGGCACAU; chemistry not given here; listed as Homo sapiens) | 61 % of control | 82 % of control | 15 % of control | 94 % of control | 4 % of control | – | – | – | – | – | – | – | – | – | – | – | – | –
11 | hsa-miR-552 (guide AACAGGUGACUGGUUAGACAA; chemistry not given here; listed as Homo sapiens) | 36 % of control | 36 % of control | 2 % of control | 47 % of control | 2 % of control | – | – | – | – | – | – | – | – | – | – | – | – | –
12 | hsa-miR-1321 (CAGGGAGGUGAAUGUGAU; chemistry not given here; listed as Homo sapiens) | – | – | – | – | – | substantial synthetic lethality | 7 % of control | 24 % of control | 50 % of control | 21 % of control | 45 % of control | 64 % of control | 23 % of control | 23 % of control | 48 % of control | 4 % of control | 18 % of control | 42 % of control
